Data taken from article PMC12990037, “Discovery of Two Structurally Distinct Classes of Inhibitors Targeting the Nuclease MUS81 and Enhancing Efficacy of Chemotherapy in Cancer Cells” (Journal of Medicinal Chemistry, 2026).

Assays:
[1] = system: U2OS cells; assay: Annexin V apoptotic assay; assay type: cell-based; settings: 3 days
Procedure: Given these promising findings, we further investigated the specificity of MU262 and MU876 and potential short-term cytotoxicity. To mirror the treatment duration used in BIR and HR assays, U2OS cells were exposed to the inhibitors or siRNA for 3 days.
U2OS WT cells (300,000) were seeded in a 6-well plate, a subset of them was treated with either control siRNA or siRNA targeting MUS81. After adhesion, cells were treated with the respective inhibitors for 72 h during which CPT (100 μM, Sigma-Aldrich) was added for the last 2 h. Cells were harvested, washed in ice-cold PBS, and collected by centrifugation at 500g for 5 min. Cells were simultaneously stained with FITC-labeled annexin V antibody (556419, Becton Dickinson) and PI (5 μL) at room temperature for 15 min, protected from light. Stained cells were analyzed using a BD FACSVerse flow cytometer (Becton Dickinson) and FlowJo software (BD Life Sciences). At least 20,000 cells were used for each measurement, and experiments were performed in duplicates.

[2] = system: major cytochrome P450 isoforms; assay: Cytochrome P450 inhibition; assay type: in vitro ADME
[3] = Microsomal stability; assay type: in vitro ADME
[4] = system: U2OS BIR-GFP cells; assay: I-SceI-based BIR repair reporter assay; assay type: cell-based; settings: Homo sapiens, 72 h, normalized to DMSO
Procedure: (§1) 3 MUS81 inhibitors suppress HR and BIR. (A) I-SceI-based BIR repair efficiency was measured in U2OS BIR-GFP cells treated with DMSO, two different siRNAs targeting MUS81, or the indicated concentrations of MU262 and MU876, and their control analogues for 72 h. The percentage of repair was normalized to the DMSO-treated control (D). n = 3. Error bars represent standard deviation (s.d.); ****p <0.0001 (unpaired, two-tailed t-test). […] (C,D) I-SceI-based HR (C) and NHEJ (D) repair efficiency was measured using U2OS DR-GFP and EJ5-GFP cells, respectively, following treatment with DMSO, MU262,MU876, or their control analogues for 72 h. The percentage of repair was normalized to the DMSO-treated control. n = 3. Error bars represent s.d.; *p <0.05, **p <0.01, ****p <0.0001 (unpaired, two-tailed t-test).
(§2) Reporter DR-GFP and […] U2OS cells along with BIR-GFP cells were transfected with 2.5 μg of I-SceI-expressing pCAGGS vector and subsequently treated with MUS81 inhibitors at the indicated concentrations. After transfection (72 h), cells were trypsinized and resuspended in 3% BSA in PBS. GFP fluorescence detection was carried out using a BD FACSVerse flow cytometer, and the data were analyzed with FlowJo software (BD Life Sciences). Data presented in the graph were normalized to the DMSO-treated sample.

[5] = system: EJ5-GFP cells; assay: I-SceI-based NHEJ repair reporter assay; assay type: cell-based; settings: 72 h
Procedure: as §1, §2

[6] = system: ALT-positive U2OS cells; assay: Detection of TFEs by FISH on metaphase spreads; assay type: cell-based; settings: 48 h
Procedure: (§3) 5 Small-molecule inhibitors of MUS81 mimic the effect of siRNA-mediated MUS81 depletion in cells. (A) U2OS cells were treated with DMSO, MUS81-targeting siRNA, MU262, MU876, or their respective control analogues for 48 h. Cytochalasin B (1.25 μg/mL) was added 16 h before harvest to prevent cytokinesis. […] (B) Representative images corresponding to the selected conditions from (A). (C) U2OS and (D) HeLa cells were incubated with DMSO, the indicated inhibitors, and their respective control analogues for 48 h. Nocodazole (200 ng/mL) was added for 5 h prior to the end of treatment to arrest cells in mitosis. Mitotic cells were collected by shake-off, and telomere fragility events (TFEs) were quantified manually for each metaphase spread. At least 70 metaphase spreads were quantified per condition. n = 3; error bars represent s.d.; ***p < 0.001, ****p < 0.0001 (ordinary One-way ANOVA).
(§4) U2OS and HeLa cells were seeded in 10 cm dishes. The next day, the medium was changed, and compounds were added at desired concentrations. This process was repeated after 43 h except that compounds were added together with 200 ng/mL of nocodazole. Cells were collected 5 h later by shake-off and incubated in 75 mM KCl at 37 °C for 10 min. Chromosomes were fixed in ice-cold methanol/acetic acid (3:1) and spread on glass slides. Slides were then treated with 20 μg/mL RNase A (Sigma-Aldrich), in 1x PBS at 37 °C for 1 h, fixed in 4% formaldehyde (Sigma-Aldrich) in 1x PBS for 2 min, and treated with 70 μg/mL pepsin (Sigma-Aldrich) in 2 mM glycine, pH 2 (Sigma-Aldrich) at 37 °C for 5 min. Slides were fixed again with 4% formaldehyde in 1x PBS for 2 min, incubated subsequently in 70%, 90%, and 100% ethanol for 5 min each, and air-dried. A C-rich telomeric PNA probe (5′-AF568-OO-p4[…]-3′; Panagene) diluted in hybridization solution (10 mM Tris–HCl pH 7.2, 70% formamide, 0.5% blocking solution (Roche)) was applied onto the slides followed by incubation at 80 °C for 5 min and at room temperature for 2 h. Slides were washed twice in 10 mM Tris–HCl pH 7.2, 70% formamide, and 0.1% BSA and three times in 100 mM Tris–HCl pH 7.2, 150 mM NaCl, and 0.08% Tween-20 at room temperature for 10 min each. DNA was counterstained with 100 ng/mL DAPI (Sigma-Aldrich) in 1x PBS and slides were mounted in Vectashield (Vector Labs). Images were acquired with a Zeiss Cell Observer equipped with a cooled Axiocam 506 m camera and a 63X/1.4NA oil DIC M27 PlanApo N objective. Image analysis was performed using ImageJ and Photoshop software (Adobe Inc.).

[7] = system: HeLa cells; assay: Detection of TFEs by FISH on metaphase spreads; assay type: cell-based; settings: 48 h
Procedure: as §3, §4

[8] = system: U2OS cells; assay: Analysis of micronuclei; assay type: cell-based; settings: 48 h
Procedure: as §3
CAL51 WT and CAL51 MUS81^–/– cells were seeded in a 96-well plate 24 h before the treatment. Alternatively, cells were transfected with 30 nM siRNA (control or MUS81) for 48 h before treatment. Subsequently, cells were treated with respective inhibitors for 48 h. During the last 16 h, cytochalasin B (Sigma-Aldrich) was added to the cells at a concentration of 1.25 μg/mL. […] Images were acquired using a Nikon Eclipse fluorescence microscope and analyzed using ImageJ software.

| Structure (SMILES) | apoptosis (Annexin V staining) [1] | inhibition of major cytochrome P450 isoforms [2] | microsomal stability [3] | IC50 [4] | effect on NHEJ [5] | telomere-free ends (TFEs) [6] | telomere-free ends (TFEs) [7] | micronuclei formation [8] |
| --- | --- | --- | --- | --- | --- | --- | --- | --- |
| CCc1nn2c(O)c(-c3nc4ccccc4[nH]3)nnc2c1-c1ccc(F)cc1 [Compound 18, 3-(1H-Benzo[d]imidazole-2-yl)-7-ethyl-8-(4-fluorophenyl)pyrazolo[5,1-c][1,2,4]triazin-4-ol] | no increase in apoptosis | do not significantly inhibit major cytochrome P450 isoforms | good microsomal stability | 1530 nM | no negative effect | significantly increased the presence of telomere-free ends (TFEs) | but not in telomerase-positive and ALT-negative HeLa cells | significantly increased micronuclei formation |
| Cc1cc(=O)[nH]c(-n2nc(-c3ccccc3)cc2NC(=O)c2cc(-c3ccccc3)on2)n1 [Compound 32, N-(1-(4-Methyl-6-oxo-1,6-dihydropyrimidin-2-yl)-3-phenyl-1H-pyrazol-5-yl)-5-phenylisoxazole-3-carboxamide] | no increase in apoptosis | do not significantly inhibit major cytochrome P450 isoforms | good microsomal stability | 240 nM | no negative effect | significantly increased the presence of telomere-free ends (TFEs) | but not in telomerase-positive and ALT-negative HeLa cells | significantly increased micronuclei formation |
